Measured values published in US20090312408A1, “ISOFLAVAN AND ISOFLAVENE COMPOUNDS AND THEIR USE AS ANGIOGENESIS INHIBITORS” (priority 2006, published 2009).

Tests used:
BBCE cells = assay: bFGF-induced endothelial cell proliferation, analysis by cell counting; format: cell-based; conditions: 120 h, 2.5 ng/ml bFGF, cell counting on day 5 or 6, read-out: half-maximal concentration, inhibition of bFGF-induced proliferation of endothelial cells
Protocol: BBCE cells were seeded (day 0) in 12-well tissue culture plates at a density of 1250 cells/cm^2 (5000 cells/ml/well) and the following day (day 1), wells received 5 μl of the compound dilutions to be tested and 2.5 ng/ml bFGF. This treatment was repeated after two days (day 3). On day 5 or 6, cells in duplicate wells were trypsinized and counted using a Coulter particle counter. Ten dilutions were tested for each compound.
One of the main angiogenic endothelial cell responses is proliferation, in which the effect of F47 was examined. The effect of F47 on bFGF-induced endothelial cell proliferation was studied using cell counting, the results being shown in FIG. 1. […] F47 inhibited both bFGF- and VEGF-induced proliferation of endothelial cells with half-maximal concentrations of 3 and <1 μM, respectively.

HUVEC = assay: VEGF-induced endothelial cell proliferation, analysis by Ki67 immunostaining; format: cell-based; conditions: Homo sapiens, HUVECs, VEGF 50 ng/ml, 6 hr, read-out: half-maximal concentration, inhibition of VEGF-induced proliferation of endothelial cells
Protocol: (§1) Human endothelial cells from umbilical vein (HUVEC) were plated on dishes pre-coated with rat collagen type I (Becton Dickinson Biosciences) and cultured in M199 medium supplemented with 20% fetal calf serum, FCS, 50 ng/ml endothelial cell growth supplement (ECGS, Sigma), heparin […] (Sigma) and 1% penicillin-streptomycin. All media and sera for cell culture were purchased from Invitrogen and were endotoxin-free. F47 was tested for endotoxin content using the QCL1000 kit from BioWhittaker, Inc. Stock solutions of F47 were resuspended in DMSO/ethanol, 1/1 by volume, and added directly to the culture medium. Cells not receiving F47 were incubated in the corresponding volume of DMSO/ethanol.
HUVECs (3×10^4) were grown on cover slips and serum starved in a medium containing 5% FCS for 12 hr. Cells were induced with VEGF (50 ng/ml) in the presence or absence of F47 (10 μM) for 6 hr, fixed in 3.7% paraformaldehyde and processed for indirect immunofluorescence using an anti-Ki67 antibody. Cells were counterstained with Hoechst 33342. […] Ki67 antigen is only expressed in active phases of the cell cycle, but not in G0 phase and the percentage of the Ki67-positive cells represents the proliferating population.
One of the main angiogenic endothelial cell responses is proliferation, in which the effect of F47 was examined. […]

HUVECs = assay: Endothelial cell survival/apoptosis, FACS analysis (sub-G1 DNA content); format: cell-based, Human; conditions: serum-starved HUVECs (5% FCS), F47 10 μM, 15 hr
Protocol: as §1
For analysis by flow cytometry, HUVECs were serum starved for 15 hr in medium containing 5% FCS and treated with VEGF (50 ng/ml) in the presence or absence of F47 (10 μM for the same period of time). At the end of the incubation time, floating and adherent cells were collected in ice-cold PBS, stained with propidium iodine using the CycleTEST PLUS DNA Reagent kit (Becton Dickinson Biosciences) and processed for flow cytometric analysis using a Becton Dickinson Fluorescence Activated Cell Scanner (FACS). The percentage of cells with a sub-G1 DNA content was considered as the cell population that had undergone apoptosis. […]

[1] = system: Bovine Microvascular Endothelial (BME) cells; assay: In vitro angiogenesis assay (tube formation in 3D collagen gel); format: cell-based; conditions: 50 μM, pictures after 7 days
Protocol: Collagen was solubilized from rat tail tendons essentially as described by Strom and Michalopoulos, Methods Enzymol 82: 544-555, 1982 and Dharmsathaphorn and Madara, Methods Enzymol. 192: 354-389, 1990. In order to prepare collagen gel, 8 volumes of a cold collagen solution from rat tail tendons (approximately 1.5 mg/ml) were quickly mixed with 1 volume of 10× minimal essential medium (MEM) without bicarbonate and 1 volume of sodium bicarbonate (11.76 mg/ml) on ice. F47 or DMSO was added at final concentration of 50 μM and the mixture was quickly dispensed into 2.00 cm^2-tissue culture wells and it was polymerized at 37° C. for 10 min (Montesano et al., J. Cell Biol. 97: 1648-1652, 1983). Bovine Microvascular Endothelial (BME) cells were seeded onto collagen gel in 500 μl of D-MEM supplemented with 10% Donkey Calf Serum (DCS), 1% glutamine and 1% penicillin-streptomycin, containing F47 (50 μM) or DMSO (control sample). The cells were left at 37° C. for 90-120 min to be attached. Following that, the medium was removed and a second layer of 200 μl of collagen mixture, containing F47 (50 μM) or DMSO, was added on the top. Again, collagen was allowed to polymerize at 37° C. for 10 min. Finally, 500 μl of medium, containing either F47 (50 μM) or DMSO, was added on the top. The ultimate layer of the medium was changed every 2 days renewing thus F47 or DMSO. Pictures were taken after 7 days. […]

A-431 tumors = assay: A-431 murine tumor xenograft model; format: in vivo, BALB/c nude mice
Protocol: To assess the in vivo antiangiogenic/antitumor activity of F47, female immunodeficient mice (5-8 week-old BALB/c nude mice, Charles River, Milan, Italy) were s.c. inoculated in the right flank with 10^7 A-431 cells in a volume of 50 μl (Morbidelli et al., Clinic Cancer Res, 2003; 9(14): 5358-69). After 9 days, when tumors reached a volume of 170 mm^3, animals were randomly assigned to 2 different experimental protocols (9-10 mice per group). Peritumor treatment with F47 (5 μg/day/mice) or vehicle started. The local peritumor treatment was performed at the dose of 5 μg/50 μl/mouse/day. The vehicle containing the same concentrations of solvents (1% ethanol+1% DMSO) was used as control. Daily treatment was performed for 10 consecutive days. Serial caliper measurements of perpendicular diameters were used to calculate tumor volume using the following formula: (shortest diameter×longest diameter×thickness of the tumor in mm). Data are reported as tumor volume in mm^3. Experiments have been performed in accordance with the guidelines of the European Economic Community for animal care and welfare (EEC Law No. 86/609) and National Ethical Committee. Animals were observed daily for signs of cytotoxicity and were sacrified by CO2 asphyxiation.
At day 10 animals were sacrificed and each tumor was immediately frozen in liquid nitrogen. Seven-μm-thick cryostat sections were stained with hematoxylin and eosin and adjacent sections were used for immunohistochemical staining with the anti-ED-B monoclonal antibody after fixation in absolute cold acetone.
FIG. 5 refers to the antitumor activity of F47 evaluated in nude mice inoculated with A-431 cells and treated after the onset of tumor growth (day 9 from inoculation, >150 mm^3 tumor volume). Peri-tumor treatment with F47 (5 μg/mice/day) or vehicle continued for 10 days. Data are reported as tumor volume in mm^3 (means±SEM of […]).

Question: With `COc1cc2c(cc1O)OCC(c1ccc(O)cc1)C2` (centres unmarked) [F47, 7,4′-dihydroxy-6-methoxy-isoflavan] as the compound, how does the IC50 (BBCE cells) read?
Answer: 3 µM

Question: What about the IC50 (HUVEC) of the same compound?
Answer: < 1 µM

Question: What about the “effect on VEGF-induced endothelial cell survival” value (HUVECs; VEGF 50 ng/ml) of the same compound?
Answer: did not inhibit

Question: What about the “level of apoptosis of serum-deprived HUVECs (toxic or apoptotic effects of the compound itself)” value (HUVECs; no VEGF) of the same compound?
Answer: did not further increase

Question: What about the “in vitro angiogenesis (tube formation) in 3D collagen cultures” value [1] of the same compound?
Answer: strongly inhibited

Question: And the survival of mice (A-431 tumors; day 8, peritumor 5 μg/day/mice)?
Answer: 78%

Question: What about the “presence of tumor vasculature (anti-ED-B antibody staining of B-fibronectin)” value (A-431 tumors; day 10, peritumor 5 μg/day, tumor sections) of the same compound?
Answer: absent

Question: And the “tumors smaller than in control mice (tumor volume)” value (A-431 tumors; peritumor 5 μg/day/mice, P<0.01 vs vehicle group at day 6 and 8, 4 animals/group)?
Answer: approximately 50%
